Conditions: Cohort 2 200 mg BID

CC(C)NC(=O)COc1cccc(-c2nc(Nc3ccc4[nH]ncc4c3)c3ccccc3n2)c1 [Belumosudil, 2-{3-[4-(1H-indazol-5-ylamino)-2-quinazolinyl]phenoxy}-N-(propan-2-yl) acetamide]
Oedema: # Events: 1 | Oedema: Affected/At Risk: 1/16 | Oedema: Affected/At Risk (%): (6.25%) | Oesophageal ulcer: # Events: 1 | Oesophageal ulcer: Affected/At Risk: 1/16 | Oesophageal ulcer: Affected/At Risk (%): (6.25%) | Oral candidiasis: # Events: 1 | Oral candidiasis: Affected/At Risk: 1/16 | Oral candidiasis: Affected/At Risk (%): (6.25%) | Oropharyngeal pain: # Events: 0 | Oropharyngeal pain: Affected/At Risk: 0/16 | Oropharyngeal pain: Affected/At Risk (%): (0%) | Orthopnoea: # Events: 0 | Orthopnoea: Affected/At Risk: 0/16 | Orthopnoea: Affected/At Risk (%): (0%) | Osteonecrosis: # Events: 0 | Osteonecrosis: Affected/At Risk: 0/16 | Osteonecrosis: Affected/At Risk (%): (0%) | Osteopenia: # Events: 1 | Osteopenia: Affected/At Risk: 1/16 | Osteopenia: Affected/At Risk (%): (6.25%) | Osteoporosis: # Events: 1 | Osteoporosis: Affected/At Risk: 1/16 | Osteoporosis: Affected/At Risk (%): (6.25%) | Overdose: # Events: 0 | Overdose: Affected/At Risk: 0/16 | Overdose: Affected/At Risk (%): (0%) | Pain in extremity: # Events: 3 | Pain in extremity: Affected/At Risk: 2/16 | Pain in extremity: Affected/At Risk (%): (12.5%) | Pain: # Events: 0 | Pain: Affected/At Risk: 0/16 | Pain: Affected/At Risk (%): (0%) | Palpitations: # Events: 0 | Palpitations: Affected/At Risk: 0/16 | Palpitations: Affected/At Risk (%): (0%) | Paraesthesia: # Events: 1 | Paraesthesia: Affected/At Risk: 1/16 | Paraesthesia: Affected/At Risk (%): (6.25%) | Participants with TEAE: 16 (100%) participants | Participants with TESAE: 6 (38%) participants | Pericardial effusion: # Events: 0 | Pericardial effusion: Affected/At Risk: 0/16 | Pericardial effusion: Affected/At Risk (%): (0%) | Peripheral coldness: # Events: 0 | Peripheral coldness: Affected/At Risk: 0/16 | Peripheral coldness: Affected/At Risk (%): (0%) | Peripheral sensory neuropathy: # Events: 1 | Peripheral sensory neuropathy: Affected/At Risk: 1/16 | Peripheral sensory neuropathy: Affected/At Risk (%): (6.25%) | Phlebitis: # Events: 1 | Phlebitis: Affected/At Risk: 1/16 | Phlebitis: Affected/At Risk (%): (6.25%) | Photophobia: # Events: 1 | Photophobia: Affected/At Risk: 1/16 | Photophobia: Affected/At Risk (%): (6.25%) | Platelet count decreased: # Events: 0 | Platelet count decreased: Affected/At Risk: 0/16 | Platelet count decreased: Affected/At Risk (%): (0%) | Pleural effusion: # Events: 0 | Pleural effusion: Affected/At Risk: 0/16 | Pleural effusion: Affected/At Risk (%): (0%) | Pneumonia respiratory syncytial viral: # Events: 1 | Pneumonia respiratory syncytial viral: Affected/At Risk: 1/16 | Pneumonia respiratory syncytial viral: Affected/At Risk (%): (6.25%) | Pneumonia: # Events: 3 | Pneumonia: Affected/At Risk: 3/16 | Pneumonia: Affected/At Risk (%): (18.75%) | Pollakiuria: # Events: 0 | Pollakiuria: Affected/At Risk: 0/16 | Pollakiuria: Affected/At Risk (%): (0%) | Presyncope: # Events: 3 | Presyncope: Affected/At Risk: 3/16 | Presyncope: Affected/At Risk (%): (18.75%) | Productive cough: # Events: 7 | Productive cough: Affected/At Risk: 2/16 | Productive cough: Affected/At Risk (%): (12.5%) | Proteinuria: # Events: 1 | Proteinuria: Affected/At Risk: 1/16 | Proteinuria: Affected/At Risk (%): (6.25%) | Pruritus: # Events: 4 | Pruritus: Affected/At Risk: 2/16 | Pruritus: Affected/At Risk (%): (12.5%) | Pseudomonas infection: # Events: 2 | Pseudomonas infection: Affected/At Risk: 1/16 | Pseudomonas infection: Affected/At Risk (%): (6.25%) | Pulmonary mass: # Events: 1 | Pulmonary mass: Affected/At Risk: 1/16 | Pulmonary mass: Affected/At Risk (%): (6.25%) | Pyrexia: # Events: 6 | Pyrexia: Affected/At Risk: 3/16 | Pyrexia: Affected/At Risk (%): (18.75%) | Rash erythematous: # Events: 1 | Rash erythematous: Affected/At Risk: 1/16 | Rash erythematous: Affected/At Risk (%): (6.25%) | Rash maculo-papular: # Events: 0 | Rash maculo-papular: Affected/At Risk: 0/16 | Rash maculo-papular: Affected/At Risk (%): (0%) | Rash pustular: # Events: 1 | Rash pustular: Affected/At Risk: 1/16 | Rash pustular: Affected/At Risk (%): (6.25%) | Rash: # Events: 1 | Rash: Affected/At Risk: 1/16 | Rash: Affected/At Risk (%): (6.25%) | Red blood cells urine positive: # Events: 1 | Red blood cells urine positive: Affected/At Risk: 1/16 | Red blood cells urine positive: Affected/At Risk (%): (6.25%) | Renal failure: # Events: 1 | Renal failure: Affected/At Risk: 1/16 | Renal failure: Affected/At Risk (%): (6.25%) | Respiratory syncytial virus infection: # Events: 1 | Respiratory syncytial virus infection: Affected/At Risk: 1/16 | Respiratory syncytial virus infection: Affected/At Risk (%): (6.25%) | Respiratory tract infection fungal: # Events: 0 | Respiratory tract infection fungal: Affected/At Risk: 0/16 | Respiratory tract infection fungal: Affected/At Risk (%): (0%) | Respiratory tract infection: # Events: 0 | Respiratory tract infection: Affected/At Risk: 0/16 | Respiratory tract infection: Affected/At Risk (%): (0%) | Restless legs syndrome: # Events: 1 | Restless legs syndrome: Affected/At Risk: 1/16 | Restless legs syndrome: Affected/At Risk (%): (6.25%) | Rosacea: # Events: 1 | Rosacea: Affected/At Risk: 1/16 | Rosacea: Affected/At Risk (%): (6.25%) | SAE Abdominal wall haematoma, # events: 0 | SAE Abdominal wall haematoma, affected/at risk: 0/16 | SAE Acute kidney injury, # events: 1 | SAE Acute kidney injury, affected/at risk: 1/16 | SAE Acute lymphocytic leukaemia recurrent, # events: 0 | SAE Acute lymphocytic leukaemia recurrent, affected/at risk: 0/16 | SAE Acute respiratory failure, # events: 0 | SAE Acute respiratory failure, affected/at risk: 0/16 | SAE Anaphylactic reaction, # events: 0 | SAE Anaphylactic reaction, affected/at risk: 0/16 | SAE Bacteraemia, # events: 1 | SAE Bacteraemia, affected/at risk: 1/16

From patent US20250255867A1 (Kadmon Corporation, LLC, priority 2022, published 2025)
